Results reported in ChEMBL document CHEMBL4371076 (J Med Chem, 2019).

Experiments:
Cytochrome P450 2C19 [1] = target: T1, Cytochrome P450 2C19 (Homo sapiens, UniProt P33261); assay: Inhibition of CYP2C19 in human liver microsomes; assay type: ADME; details: human, microsomes
Cytochrome P450 3A4 [2] = target: T2, Cytochrome P450 3A4 (Homo sapiens, UniProt P08684); assay: Time-dependant inhibition of CYP3A4 in human liver microsomes; assay type: ADME
Cytochrome P450 2C8 [3] = target: T3, Cytochrome P450 2C8 (Homo sapiens, UniProt P10632); assay: Time-dependant inhibition of CYP2C8 in human liver microsomes; assay type: ADME
T3 sequence (P10632 whole entry): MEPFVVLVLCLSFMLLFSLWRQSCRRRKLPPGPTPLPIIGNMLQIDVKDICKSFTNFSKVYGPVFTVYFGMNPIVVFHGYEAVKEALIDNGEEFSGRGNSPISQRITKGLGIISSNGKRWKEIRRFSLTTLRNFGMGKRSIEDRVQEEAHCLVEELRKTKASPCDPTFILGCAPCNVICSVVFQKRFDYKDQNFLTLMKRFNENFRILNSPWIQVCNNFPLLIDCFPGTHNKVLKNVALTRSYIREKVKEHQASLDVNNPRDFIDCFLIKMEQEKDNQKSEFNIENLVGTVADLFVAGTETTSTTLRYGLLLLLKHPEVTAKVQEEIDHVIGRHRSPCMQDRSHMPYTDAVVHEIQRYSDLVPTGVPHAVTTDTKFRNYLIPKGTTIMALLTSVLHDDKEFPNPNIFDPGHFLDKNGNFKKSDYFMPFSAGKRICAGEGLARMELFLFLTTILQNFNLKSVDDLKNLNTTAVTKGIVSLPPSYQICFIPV

[4] = Metabolic stability in mouse liver microsomes assessed as parent compound remaining at 0.5 uM after 10 mins; assay type: ADME, Microsome; details: read-out: Stability
[5] = Metabolic stability in rat liver microsomes assessed as parent compound remaining at 0.5 uM after 10 mins; assay type: ADME, Microsome; details: read-out: Stability
Cytochrome P450 2D6 [6] = target: T4, Cytochrome P450 2D6 (Homo sapiens, UniProt P10635); assay: Inhibition of CYP2D6 in human liver microsomes; assay type: ADME; details: human, microsomes
T4 sequence (P10635 whole entry): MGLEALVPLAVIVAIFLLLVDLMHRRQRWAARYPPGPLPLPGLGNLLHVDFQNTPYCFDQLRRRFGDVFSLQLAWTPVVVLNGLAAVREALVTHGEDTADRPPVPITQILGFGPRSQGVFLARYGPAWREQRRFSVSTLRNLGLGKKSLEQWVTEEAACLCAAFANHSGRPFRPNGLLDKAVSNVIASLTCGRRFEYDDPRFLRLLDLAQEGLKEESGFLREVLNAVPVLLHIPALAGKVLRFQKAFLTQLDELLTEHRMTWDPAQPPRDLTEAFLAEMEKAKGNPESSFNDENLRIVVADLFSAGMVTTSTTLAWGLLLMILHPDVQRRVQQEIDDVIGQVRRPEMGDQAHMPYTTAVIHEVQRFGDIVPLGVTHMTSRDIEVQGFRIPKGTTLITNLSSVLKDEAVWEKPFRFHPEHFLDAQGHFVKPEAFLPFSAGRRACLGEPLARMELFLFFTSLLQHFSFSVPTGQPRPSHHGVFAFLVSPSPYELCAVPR

[7] = Permeability of the compound at pH 7.4 by PAMPA; assay type: ADME; details: read-out: permeability
[8] = target: T5, Sodium channel protein type 9 subunit alpha (Homo sapiens, UniProt Q15858); assay: Inhibition of human Nav1.7 expressed in HEK293 cells after 600 secs at -60 mV holding potential by ion works barracuda population patch clamp method; assay type: cell-based
T5 sequence (Q15858 whole entry): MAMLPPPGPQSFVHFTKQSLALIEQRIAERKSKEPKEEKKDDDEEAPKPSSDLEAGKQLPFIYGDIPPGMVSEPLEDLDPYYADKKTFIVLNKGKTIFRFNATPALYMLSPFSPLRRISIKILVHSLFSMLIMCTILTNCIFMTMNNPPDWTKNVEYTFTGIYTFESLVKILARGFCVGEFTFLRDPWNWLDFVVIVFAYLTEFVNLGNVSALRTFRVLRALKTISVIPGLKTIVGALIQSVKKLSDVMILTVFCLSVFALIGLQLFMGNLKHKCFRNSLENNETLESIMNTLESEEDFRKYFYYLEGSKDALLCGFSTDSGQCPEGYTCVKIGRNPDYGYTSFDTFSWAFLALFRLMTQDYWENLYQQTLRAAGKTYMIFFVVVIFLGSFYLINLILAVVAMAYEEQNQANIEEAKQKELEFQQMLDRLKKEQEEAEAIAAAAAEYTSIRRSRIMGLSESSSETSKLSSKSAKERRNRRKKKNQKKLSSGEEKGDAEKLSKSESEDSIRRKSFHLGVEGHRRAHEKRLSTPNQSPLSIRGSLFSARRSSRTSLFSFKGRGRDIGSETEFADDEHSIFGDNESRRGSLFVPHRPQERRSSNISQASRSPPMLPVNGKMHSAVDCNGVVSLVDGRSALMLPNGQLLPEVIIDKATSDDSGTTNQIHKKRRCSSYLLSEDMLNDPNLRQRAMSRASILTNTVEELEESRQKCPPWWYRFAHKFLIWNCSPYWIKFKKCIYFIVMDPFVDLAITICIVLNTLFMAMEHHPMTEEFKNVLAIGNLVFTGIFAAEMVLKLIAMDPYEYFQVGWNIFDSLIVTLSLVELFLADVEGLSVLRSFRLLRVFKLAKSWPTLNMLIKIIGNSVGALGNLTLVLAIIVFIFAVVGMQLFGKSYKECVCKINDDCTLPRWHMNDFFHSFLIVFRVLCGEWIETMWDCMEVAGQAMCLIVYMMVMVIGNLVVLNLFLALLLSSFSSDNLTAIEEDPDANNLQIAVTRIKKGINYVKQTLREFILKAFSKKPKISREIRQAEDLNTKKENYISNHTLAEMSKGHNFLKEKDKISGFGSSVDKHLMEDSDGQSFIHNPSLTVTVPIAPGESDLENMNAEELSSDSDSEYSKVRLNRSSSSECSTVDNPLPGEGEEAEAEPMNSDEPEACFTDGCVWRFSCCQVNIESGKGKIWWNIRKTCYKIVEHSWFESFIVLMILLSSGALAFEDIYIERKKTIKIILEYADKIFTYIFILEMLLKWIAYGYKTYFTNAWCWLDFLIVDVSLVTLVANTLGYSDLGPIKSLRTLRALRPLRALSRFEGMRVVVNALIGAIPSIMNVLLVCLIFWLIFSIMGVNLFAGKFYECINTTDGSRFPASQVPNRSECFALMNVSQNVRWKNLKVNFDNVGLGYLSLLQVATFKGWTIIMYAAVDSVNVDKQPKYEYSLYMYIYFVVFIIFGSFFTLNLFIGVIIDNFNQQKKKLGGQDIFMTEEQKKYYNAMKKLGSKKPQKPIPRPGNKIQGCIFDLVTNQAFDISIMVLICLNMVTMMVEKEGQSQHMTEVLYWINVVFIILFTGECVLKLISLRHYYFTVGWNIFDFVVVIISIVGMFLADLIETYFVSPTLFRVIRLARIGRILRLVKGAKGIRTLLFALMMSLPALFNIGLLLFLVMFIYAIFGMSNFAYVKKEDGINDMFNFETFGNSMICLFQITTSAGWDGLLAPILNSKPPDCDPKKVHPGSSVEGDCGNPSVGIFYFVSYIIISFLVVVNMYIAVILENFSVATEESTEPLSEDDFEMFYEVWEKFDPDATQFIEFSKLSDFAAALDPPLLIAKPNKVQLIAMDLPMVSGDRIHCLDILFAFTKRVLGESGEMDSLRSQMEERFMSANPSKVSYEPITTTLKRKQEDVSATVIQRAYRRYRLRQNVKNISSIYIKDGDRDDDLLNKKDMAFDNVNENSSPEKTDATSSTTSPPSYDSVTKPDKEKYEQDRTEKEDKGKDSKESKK

Cytochrome P450 2C19 [9] = target: T1, Cytochrome P450 2C19; assay: Time-dependant inhibition of CYP2C19 in human liver microsomes; assay type: ADME
[10] = Fraction unbound in mouse plasma; assay type: ADME, cell-free
Cytochrome P450 2D6 [11] = target: T4, Cytochrome P450 2D6; assay: Time-dependant inhibition of CYP2D6 in human liver microsomes; assay type: ADME
[12] = Permeability of the compound at pH 5.5 by PAMPA; assay type: ADME; details: read-out: permeability
[13] = target: Sodium channel protein type 5 subunit alpha (Homo sapiens, UniProt Q14524); assay: Inhibition of human Nav1.5 expressed in HEK293 cells after 600 secs at -50 mV holding potential by ion works barracuda population patch clamp method; assay type: cell-based
Sequence of Sodium channel protein type 5 subunit alpha (Q14524 whole entry): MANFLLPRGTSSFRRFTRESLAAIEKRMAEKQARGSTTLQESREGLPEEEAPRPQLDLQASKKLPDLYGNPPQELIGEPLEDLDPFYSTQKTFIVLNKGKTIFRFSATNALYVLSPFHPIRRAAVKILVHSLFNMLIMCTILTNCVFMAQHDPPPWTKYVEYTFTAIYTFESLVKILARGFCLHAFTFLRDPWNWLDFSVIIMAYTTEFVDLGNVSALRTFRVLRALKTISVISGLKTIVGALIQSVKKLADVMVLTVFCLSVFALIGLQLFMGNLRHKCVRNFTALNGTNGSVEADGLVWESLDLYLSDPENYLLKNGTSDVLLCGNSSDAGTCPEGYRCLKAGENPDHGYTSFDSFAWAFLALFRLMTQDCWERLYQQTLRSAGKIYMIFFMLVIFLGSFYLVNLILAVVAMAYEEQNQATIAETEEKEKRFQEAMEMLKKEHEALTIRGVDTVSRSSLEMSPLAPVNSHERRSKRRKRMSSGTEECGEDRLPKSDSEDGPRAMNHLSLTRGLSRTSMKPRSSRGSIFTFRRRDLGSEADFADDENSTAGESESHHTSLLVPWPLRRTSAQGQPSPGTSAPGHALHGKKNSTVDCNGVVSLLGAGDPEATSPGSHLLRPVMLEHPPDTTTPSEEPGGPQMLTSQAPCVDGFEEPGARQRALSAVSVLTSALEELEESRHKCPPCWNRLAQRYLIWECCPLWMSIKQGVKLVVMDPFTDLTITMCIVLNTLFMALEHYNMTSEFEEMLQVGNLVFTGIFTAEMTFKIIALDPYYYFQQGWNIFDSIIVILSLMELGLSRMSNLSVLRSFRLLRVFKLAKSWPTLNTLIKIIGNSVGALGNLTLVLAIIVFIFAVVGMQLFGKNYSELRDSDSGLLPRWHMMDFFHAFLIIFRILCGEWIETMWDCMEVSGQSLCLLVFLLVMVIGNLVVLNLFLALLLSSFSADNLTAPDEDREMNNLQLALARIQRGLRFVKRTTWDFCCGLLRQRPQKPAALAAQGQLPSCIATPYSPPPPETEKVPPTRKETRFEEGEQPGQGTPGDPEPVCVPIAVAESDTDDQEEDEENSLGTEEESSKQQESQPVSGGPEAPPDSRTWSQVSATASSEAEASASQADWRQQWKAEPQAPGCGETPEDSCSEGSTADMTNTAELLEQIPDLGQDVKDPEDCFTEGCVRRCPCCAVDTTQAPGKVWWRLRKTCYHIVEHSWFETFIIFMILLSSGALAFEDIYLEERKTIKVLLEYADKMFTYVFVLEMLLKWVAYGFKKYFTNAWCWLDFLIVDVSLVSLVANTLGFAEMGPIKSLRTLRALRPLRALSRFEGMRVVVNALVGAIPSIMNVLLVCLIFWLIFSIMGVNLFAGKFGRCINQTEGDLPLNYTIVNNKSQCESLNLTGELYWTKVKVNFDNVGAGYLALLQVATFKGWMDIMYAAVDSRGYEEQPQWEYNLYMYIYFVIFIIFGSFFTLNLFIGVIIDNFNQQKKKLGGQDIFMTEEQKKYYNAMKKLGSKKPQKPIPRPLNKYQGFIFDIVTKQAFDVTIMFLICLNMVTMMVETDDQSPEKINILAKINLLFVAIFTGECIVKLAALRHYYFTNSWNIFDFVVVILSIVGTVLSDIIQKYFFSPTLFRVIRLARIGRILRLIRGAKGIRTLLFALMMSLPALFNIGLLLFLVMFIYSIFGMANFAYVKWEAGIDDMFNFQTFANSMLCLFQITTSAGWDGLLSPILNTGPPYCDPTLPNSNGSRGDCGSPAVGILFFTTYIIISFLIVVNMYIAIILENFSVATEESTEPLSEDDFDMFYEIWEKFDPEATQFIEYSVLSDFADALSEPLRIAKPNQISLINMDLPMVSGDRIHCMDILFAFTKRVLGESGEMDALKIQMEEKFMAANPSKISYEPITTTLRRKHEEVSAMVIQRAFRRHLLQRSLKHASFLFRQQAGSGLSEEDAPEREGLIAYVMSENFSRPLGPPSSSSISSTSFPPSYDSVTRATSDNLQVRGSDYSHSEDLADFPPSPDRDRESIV

Cytochrome P450 2C8 [14] = target: T3, Cytochrome P450 2C8; assay: Inhibition of CYP2C8 in human liver microsomes; assay type: ADME; details: human, microsomes
[15] = target: T5, Sodium channel protein type 9 subunit alpha; assay: Inhibition of recombinant human Nav1.7 expressed in HEK293 cells at -70 mV holding potential by patch clamp electrophysiology method; assay type: cell-based
Cytochrome P450 3A4 [16] = target: T2, Cytochrome P450 3A4; assay: Inhibition of CYP3A4 in human liver microsomes; assay type: ADME; details: human, microsomes
Cytochrome P450 2B6 [17] = target: T6, Cytochrome P450 2B6 (Homo sapiens, UniProt P20813); assay: Time-dependant inhibition of CYP2B6 in human liver microsomes; assay type: ADME
T6 sequence (P20813 whole entry): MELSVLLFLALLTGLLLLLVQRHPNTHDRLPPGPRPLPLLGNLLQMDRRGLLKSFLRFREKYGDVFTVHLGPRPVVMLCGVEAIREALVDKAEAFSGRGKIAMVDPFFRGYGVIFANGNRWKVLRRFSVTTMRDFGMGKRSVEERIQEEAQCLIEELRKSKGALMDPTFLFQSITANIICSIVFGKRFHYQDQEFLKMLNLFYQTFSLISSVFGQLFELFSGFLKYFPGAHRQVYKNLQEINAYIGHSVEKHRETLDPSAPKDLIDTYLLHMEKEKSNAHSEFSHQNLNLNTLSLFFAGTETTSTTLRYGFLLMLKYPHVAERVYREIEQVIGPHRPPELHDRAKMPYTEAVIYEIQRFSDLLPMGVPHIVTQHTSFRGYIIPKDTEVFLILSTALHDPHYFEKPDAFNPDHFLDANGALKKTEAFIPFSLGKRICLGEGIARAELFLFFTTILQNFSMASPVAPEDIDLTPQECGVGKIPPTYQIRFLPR

Cytochrome P450 2C9 [18] = target: T7, Cytochrome P450 2C9 (Homo sapiens, UniProt P11712); assay: Inhibition of CYP2C9 in human liver microsomes; assay type: ADME; details: human, microsomes
Cytochrome P450 2C9 [19] = target: T7, Cytochrome P450 2C9; assay: Time-dependant inhibition of CYP2C9 in human liver microsomes; assay type: ADME
[20] = Metabolic stability in human liver microsomes assessed as parent compound remaining at 0.5 uM after 10 mins; assay type: ADME, Microsome; details: read-out: Stability
Cytochrome P450 2B6 [21] = target: T6, Cytochrome P450 2B6; assay: Inhibition of CYP2B6 in human liver microsomes; assay type: ADME; details: human, microsomes
[22] = Fraction unbound in human plasma; assay type: ADME, cell-free
[23] = Permeability from basolateral to apical side in human Caco2 cells; assay type: ADME, cell-based; details: Caco-2, read-out: permeability
[24] = Efflux ratio of permeability in human Caco2 cells; assay type: ADME, cell-based; details: Caco-2
[25] = Permeability from apical to basolateral side in human Caco2 cells; assay type: ADME, cell-based; details: Caco-2, read-out: permeability

T1 sequence (P33261 whole entry): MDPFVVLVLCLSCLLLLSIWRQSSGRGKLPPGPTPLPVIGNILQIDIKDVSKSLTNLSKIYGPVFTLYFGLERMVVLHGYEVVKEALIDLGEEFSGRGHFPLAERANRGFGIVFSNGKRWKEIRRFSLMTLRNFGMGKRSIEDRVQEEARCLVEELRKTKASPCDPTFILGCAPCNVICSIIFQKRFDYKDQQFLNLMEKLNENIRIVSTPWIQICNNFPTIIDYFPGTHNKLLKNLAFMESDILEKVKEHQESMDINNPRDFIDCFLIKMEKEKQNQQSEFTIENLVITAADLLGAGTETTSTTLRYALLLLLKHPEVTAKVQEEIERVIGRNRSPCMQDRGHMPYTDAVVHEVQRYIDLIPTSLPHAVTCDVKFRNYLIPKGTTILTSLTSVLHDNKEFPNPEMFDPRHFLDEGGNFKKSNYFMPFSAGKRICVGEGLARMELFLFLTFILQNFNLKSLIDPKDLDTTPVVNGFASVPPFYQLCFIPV

inhibition (INH) (Cytochrome P450 2C19 [1]) | TDI (Cytochrome P450 3A4 [2]) | TDI (Cytochrome P450 2C8 [3]) | remaining at 10 min, 0.5 µM [4] | remaining at 10 min, 0.5 µM [5] | inhibition (INH) (Cytochrome P450 2D6 [6]) | Papp [7] | TDI (Cytochrome P450 2C19 [9]) | fraction unbound [10] | TDI (Cytochrome P450 2D6 [11]) | Papp [12] | inhibition (INH) (Cytochrome P450 2C8 [14]) | IC50 [15] | inhibition (INH) (Cytochrome P450 3A4 [16]) | TDI (Cytochrome P450 2B6 [17]) | inhibition (INH) (Cytochrome P450 2C9 [18]) | TDI (Cytochrome P450 2C9 [19]) | remaining at 10 min, 0.5 µM [20] | inhibition (INH) (Cytochrome P450 2B6 [21]) | fraction unbound [22] | SMILES | further results
Not Active | Not Active | Not Active | 92% | 88% | Not Active | 10 ×10⁻⁶ cm/s | Not Active | 0.011 | Not Active | 76.2 ×10⁻⁶ cm/s | Not Active | 43 nM | Not Active | Not Active | Not Active | Not Active | 91% | Not Active | – | CC(C)COc1ccc(-c2nn(C)c3cc(C(=O)NS(=O)(=O)C4CC4)c(F)cc23)cn1 | IC50 [8]: 45 nM; IC50 [13]: 11000 nM
Not Active | Not Active | Not Active | 95% | 99% | Not Active | 14 ×10⁻⁶ cm/s | Not Active | 0.005 | Not Active | 71.2 ×10⁻⁶ cm/s | Not Active | 13 nM | Not Active | Not Active | Not Active | Not Active | 97% | Not Active | 0.002 | Cn1cc(-c2ccc(C(F)(F)F)cc2)c2cc(F)c(C(=O)NS(C)(=O)=O)cc21 | Papp B→A [23]: 12.5 ×10⁻⁶ cm/s; efflux ratio [24]: 6.1; Papp A→B [25]: 2 ×10⁻⁶ cm/s
Not Active | Not Active | Not Active | 100% | 100% | Not Active | 10.2 ×10⁻⁶ cm/s | Not Active | 0.008 | Not Active | 59.2 ×10⁻⁶ cm/s | Not Active | 21 nM | Not Active | Not Active | Not Active | Not Active | 100% | Not Active | – | Cn1nc(-c2ccc(C(F)(F)F)cc2)c2cc(F)c(C(=O)NS(=O)(=O)C3CC3)cc21 | Papp B→A [23]: 31.2 ×10⁻⁶ cm/s; IC50 [8]: 13 nM; efflux ratio [24]: > 21; IC50 [13]: 6400 nM; Papp A→B [25]: < 1.5 ×10⁻⁶ cm/s
Not Active | Not Active | Not Active | 87% | 92% | Not Active | 13.5 ×10⁻⁶ cm/s | Not Active | 0.004 | Not Active | 52.5 ×10⁻⁶ cm/s | Not Active | 8 nM | Not Active | Not Active | Not Active | Not Active | 87% | Not Active | 0.002 | Cn1cc(-c2ccc(C(F)(F)F)cc2)c2ccc(C(=O)NS(=O)(=O)C3CC3)cc21 | IC50 [8]: 104 nM; IC50 [13]: 8400 nM
Not Active | Not Active | Not Active | 93% | 77% | Not Active | 39.1 ×10⁻⁶ cm/s | Not Active | 0.002 | Not Active | – | Not Active | 27 nM | Not Active | Not Active | Not Active | Not Active | 97% | Not Active | < 0.001 | Cn1cc(-c2cnc(OCC3CC3)c(Cl)c2)c2ccc(C(=O)NS(=O)(=O)C3CC3)cc21 | Papp B→A [23]: 11.4 ×10⁻⁶ cm/s; IC50 [8]: 82 nM; efflux ratio [24]: > 7.6; Papp A→B [25]: < 1.5 ×10⁻⁶ cm/s
Not Active | Not Active | Not Active | 54% | 74% | Not Active | 17.1 ×10⁻⁶ cm/s | Not Active | < 0.001 | Not Active | 97.2 ×10⁻⁶ cm/s | Not Active | 96 nM | Not Active | Not Active | Not Active | Not Active | 100% | Not Active | < 0.001 | Cn1cc(-c2ccc(C(F)(F)F)cc2)c2ccc(C(=O)NS(C)(=O)=O)cc21 | Papp B→A [23]: 7.6 ×10⁻⁶ cm/s; IC50 [8]: 88 nM; efflux ratio [24]: > 5.1; Papp A→B [25]: < 1.5 ×10⁻⁶ cm/s
Not Active | Not Active | Not Active | 100% | 85% | Not Active | 20.5 ×10⁻⁶ cm/s | Not Active | 0.002 | Not Active | 49.5 ×10⁻⁶ cm/s | Not Active | 1.1 nM | Not Active | Not Active | Not Active | Not Active | 100% | Not Active | 0.001 | CC(C)COc1ncc(-c2cn(C)c3cc(C(=O)NS(C)(=O)=O)c(F)cc23)cc1Cl | Papp B→A [23]: 6.7 ×10⁻⁶ cm/s; efflux ratio [24]: 3.4; Papp A→B [25]: 2 ×10⁻⁶ cm/s

SMILES | inhibition (INH) (Cytochrome P450 2C19 [1]) | TDI (Cytochrome P450 3A4 [2]) | TDI (Cytochrome P450 2C8 [3]) | remaining at 10 min, 0.5 µM [4] | remaining at 10 min, 0.5 µM [5] | inhibition (INH) (Cytochrome P450 2D6 [6]) | Papp [7] | TDI (Cytochrome P450 2C19 [9]) | fraction unbound [10] | TDI (Cytochrome P450 2D6 [11]) | Papp [12] | inhibition (INH) (Cytochrome P450 2C8 [14]) | IC50 [15] | inhibition (INH) (Cytochrome P450 3A4 [16]) | TDI (Cytochrome P450 2B6 [17]) | inhibition (INH) (Cytochrome P450 2C9 [18]) | TDI (Cytochrome P450 2C9 [19]) | remaining at 10 min, 0.5 µM [20] | inhibition (INH) (Cytochrome P450 2B6 [21]) | fraction unbound [22] | further results
CC(C)Cc1ccc(-c2cn(C)c3cc(C(=O)NS(C)(=O)=O)ccc23)cc1 | Not Active | Not Active | Not Active | 100% | 94% | Not Active | – | Not Active | 0.003 | Not Active | – | Not Active | 23 nM | Not Active | Not Active | Not Active | Not Active | 100% | Not Active | 0.001 | Papp B→A [23]: 7.8 ×10⁻⁶ cm/s; efflux ratio [24]: > 6.2; IC50 [13]: > 30000 nM; Papp A→B [25]: < 1.5 ×10⁻⁶ cm/s
